Columns and labels:
Format in all cases: cell-based
[1] = system: H69; experiment: Alamar Blue cell viability assay, H69; conditions: Homo sapiens, NCI-H69; H69, Small cell lung cancer (SCLC), alamarBlue, incubation 72 h
Description: (§1) Alamar Blue Cell Viability Assay
(§2) Cells were plated 12 hours prior to start of drug treatment, which lasted for 72 hours for all cytotoxicity experiments. Cell viability was estimated by alamarBlue™ Cell Viability Reagent (ThermoFisher, Waltham, Mass.) per manufacturer's instructions.
(§3) Results, in terms of IC50 (μM), are shown in Table 4 for a representative compound of the invention, viz. Example 172.

[2] = system: H1299; experiment: MTT cytotoxicity assay, H1299; conditions: Homo sapiens, NCI-H1299, H1299, Non-small cell lung cancer, incubation 72 h
Description: (§4) The MTT assay (Sigma-Aldrich) was used to measure cytotoxic capability of the ROR1 tyrosine kinase inhibitors (ROR1-TKI). Briefly, 2×10^4 cancer cells were incubated in triplicates in 200 μL of RPMI-1640 containing 10% FCS in 96 well plates. ROR1-TKI (dissolved in DMSO), were added to the cells. Cells treated with DMSO were used as negative control. Cells were incubated for 48, 72 or 96 h. An amount of 20 μL MTT solution was added and the cell suspension was incubated for 4 h at 37 degrees C. The reaction was stopped by adding 100 μL MTT solvent (10% SDS in 0.01 M HCl) and was incubated for further 2-4 h. The plate was then read by a microplate reader at 570 nm.
as §3

[3] = system: HDLM2; experiment: Flow cytometry Annexin V/PI apoptosis assay, HDLM2; conditions: Homo sapiens, HDLM-2, HDLM2, Hodgkin’s Lymphoma (HL), incubation 48 h
Description: (§5) Flow Cytometry Annexin V/PI Apoptosis Assay
(§6) An amount of 1 ml (10^5 cells/mL) of cells were seeded in each well of 6-well plates with and without compounds for 48 h. Cells were collected, washed with PBS, suspended in 100 μL of Annexin-V binding buffer (BD Biosciences) containing FITC-conjugated Annexin-V and PI (BD Biosciences) and incubated at room temperature in the dark for 20 min. After 20 min of incubation, 150 μL Annexin-V binding buffer was added. Viable cells were identified as the double negative Annexin-V and PI population. Samples were analyzed by a FACS Canto II Flow-cytometer (BD Biosciences).
as §3

[4] = system: A2780; experiment: MTT cytotoxicity assay, A2780; conditions: Homo sapiens, A2780, Ovarian cancer (OC), incubation 48 h
Description: as §4, §3

[5] = system: SupB15; experiment: Flow cytometry Annexin V/PI apoptosis assay, SupB15; conditions: Homo sapiens, SUP-B15, SupB15, B-cell acute lymphoblastic leukemia (B-ALL), incubation 48 h
Description: as §5, §6, §3

[6] = system: H211; experiment: Alamar Blue cell viability assay, H211; conditions: Homo sapiens, NCI-H211; H211, Small cell lung cancer, alamarBlue, incubation 72 h
Description: as §1, §2, §3

[7] = system: Z138; experiment: MTT cytotoxicity assay, Z138; conditions: Homo sapiens, Z-138, Z138, Mantle Cell Lymphoma (MCL), incubation 96 h
Description: as §4, §3

[8] = system: SUDHL4; experiment: MTT cytotoxicity assay, SUDHL4; conditions: Homo sapiens, SU-DHL-4, SUDHL4, Diffuse large B-cell lymphoma (DLBCL), incubation 48 h
Description: as §4, §3

[9] = system: SupB15; experiment: MTT cytotoxicity assay, SupB15; conditions: Homo sapiens, SUP-B15, SupB15, B-cell acute lymphoblastic leukemia (B-ALL), incubation 48 h
Description: as §4, §3

[10] = system: Reh; experiment: Flow cytometry Annexin V/PI apoptosis assay, Reh; conditions: Homo sapiens, Non-T-cell non-B-cell-acute lymphoblastic leukemia, incubation 48 h
Description: as §5, §6, §3

[11] = system: H187; experiment: Alamar Blue cell viability assay, H187; conditions: Homo sapiens, NCI-H187; H187, Small cell lung cancer, alamarBlue, incubation 72 h
Description: as §1, §2, §3

[12] = system: Granta-519; experiment: MTT cytotoxicity assay, Granta-519; conditions: Homo sapiens, Granta-519, Mantle Cell Lymphoma (MCL), incubation 96 h
Description: as §4, §3

[13] = system: Reh; experiment: MTT cytotoxicity assay, Reh; conditions: Homo sapiens, Non-T-cell non-B-cell-acute lymphoblastic leukemia, incubation 48 h
Description: as §4, §3

[14] = system: H1975; experiment: MTT cytotoxicity assay, H1975; conditions: Homo sapiens, NCI-H1975, H1975, Non-small cell lung cancer, incubation 72 h
Description: as §4, §3

[15] = system: A2780; experiment: Flow cytometry Annexin V/PI apoptosis assay, A2780; conditions: Homo sapiens, A2780, Ovarian cancer (OC), incubation 48 h
Description: as §5, §6, §3

[16] = system: MDA-V; experiment: Flow cytometry Annexin V/PI apoptosis assay, MDA-V; conditions: Hodgkin’s Lymphoma (HL), incubation 48 h
Description: as §5, §6, §3

[17] = system: HPB; experiment: Flow cytometry Annexin V/PI apoptosis assay, HPB; conditions: T-cell acute lymphoblastic leukemia (T-ALL), incubation 48 h
Description: as §5, §6, §3

[18] = system: RC-KB; experiment: MTT cytotoxicity assay, RC-KB; conditions: Diffuse large B-cell lymphoma (DLBCL), incubation 48 h
Description: as §4, §3

[19] = system: KE37; experiment: MTT cytotoxicity assay, KE37; conditions: Homo sapiens, KE-37, KE37, T-cell acute lymphoblastic leukemia (T-ALL), incubation 48 h
Description: as §4, §3

[20] = system: EHEB; experiment: MTT cytotoxicity assay, EHEB; conditions: CLL cell line, DSMZ bank, (ACC 67), incubation 48 h
Description: as §4, §3

IC50 [3]: 100 nM
IC50 [5]: 66 nM
IC50 [6]: 180 nM
IC50 [10]: 41 nM
IC50 [11]: 230 nM
IC50 [15]: 270 nM
IC50 [16]: 100 nM
IC50 [17]: 140 nM
Compound: CCOCCN1CCN(c2ccc(-c3nc4c(NC5CCN(CC)CC5)c(Br)cnc4[nH]3)cc2)CC1 [Example 172, 6-Bromo-2-{4-[4-(2-ethoxyethyl)piperazin-1-yl]phenyl}-N-(1-ethylpiperidin-4-yl)-3H-imidazo[4,5-b]pyridin-7-amine]
IC50 [1]: 250 nM
IC50 [2]: 250 nM
IC50 [4]: 100 nM
IC50 [7]: 250 nM
IC50 [8]: 50 nM
IC50 [9]: 50 nM
IC50 [12]: 250 nM
IC50 [13]: 50 nM
IC50 [14]: 250 nM
IC50 [18]: 100 nM
IC50 [19]: 200 nM
IC50 [20]: 200 nM
